Test results: PubChem BioAssay (NCI)
Several values for one entry are separate records, joined by “and”; a condition that tells them apart may be missing. Equal entries are not always repeated.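 Where inhibition never reached the appropriate level, the endpoint shown equals the highest concentration tested. Otherwise, values were interpolated linearly from a five-concentration, 48-hour dose response in 96-well plates. GI50 is the concentration that inhibits growth by half. Definition used: TGI = concentration required for complete inhibition of growth.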

What follows are molecules tested on MDA-MB-435 (assay: DTP human tumour cell line panel, 48 h).
For `O=C(Nc1cccc(Cl)c1)c1cc2ccccc2cc1O`, the GI50 was 2.38 µM and 2.02 µM and the TGI was greater than 100 µM. `CC(C)c1ccccc1S(=O)c1ccccc1C(C)(C)O` (stereo not drawn) showed a TGI greater than 100 µM. For `O=C(N/N=C\c1cc(Br)ccc1O)c1ccncc1`, the GI50 was 5.36 µM and the TGI was greater than 100 µM. Molecule `COc1ccccc1/C=C/c1cnccn1` has a TGI greater than 10 µM. For `O=C(O)c1cccc(OCCO)c1`, the TGI was greater than 100 µM. `COc1ccc(C2C(C#N)=C(N)OC3=C2COc2ccc(F)cc23)cc1OC` (stereo not drawn) gave a GI50 of 23.6 µM and a TGI of 62.3 µM. `CCOC(=O)C1=C(C)N(N)C(=S)NC1c1ccc(C)cc1` (stereo not drawn) was tested, and the GI50 was 14.8 µM and the TGI was 72.2 µM. Work on `N#CC(C(=O)/C(=N/Nc1nc(=S)[nH]n1N)C(C#N)c1ccccc1)c1ccccc1` (stereo not drawn) yielded a TGI greater than 100 µM. `CCCS(=O)(=O)Nc1ccc(Nc2c3ccccc3nc3ccccc23)c(OC)c1` was tested, and the TGI was 26.3 µM. `Cc1cc(NC(=O)c2ccc(C)c(Nc3nccc(-c4cccnc4)n3)c2)cc(-n2cnc(C)c2)c1` showed a GI50 of 2.12 µM and a TGI of 8.76 µM. With `O=C(O)c1ccccc1-c1ccccc1C(=O)Nc1ccc2c(c1)Cc1cc(F)ccc1-2` the TGI was greater than 100 µM. `CN(C)Cc1c[nH]c2c1C(=O)c1c(c(O)c3ccccc3c1O)C2=O` gave a GI50 of 10.6 µM and a TGI of 23 µM.

These molecules were tested on NCI/ADR-RES ovarian (assay: DTP human tumour cell line panel, 48 h).
Molecule `CN1CCc2c(Sc3ccc(C(=O)NO)cc3)c3ccccc3n2C1` has a GI50 of 6.81 µM and a TGI of 51.7 µM. For `COc1ccc(CNc2c3ccccc3nc3ccccc23)cc1OC`, the GI50 was 1.75 µM and the TGI was 6.61 µM. `CN(C)c1ccc2nc3ccc(=O)cc-3sc2c1` gave a GI50 of 0.665 µM and a TGI greater than 100 µM. Work on `O=C(Nc1ccc(Cl)cc1F)c1cc(Br)ccc1O` yielded a GI50 of 1.39 µM and a TGI of 14.6 µM. In the case of `COc1ccc(-n2cc(-c3ccc(Cl)c(Cl)c3)nc2SCc2cccc(C#N)c2)cc1`, the GI50 is reported as 23 µM and the TGI is reported as greater than 100 µM. Molecule `Fc1ccc(Nc2cc(-n3nnc4ccccc43)nc3ccccc23)cc1` has a GI50 of 56.3 µM and a TGI greater than 100 µM. In the case of `NC(=O)C(=CNc1nc(-c2ccc(Cl)c(Cl)c2)cs1)C(N)=O`, the GI50 is reported as greater than 100 µM and the TGI is reported as greater than 100 µM. In the case of `NC(N)=N/N=C/c1cc(Cl)cc(Cl)c1O`, the TGI is reported as greater than 100 µM. For `O=C(Nc1cccc(Cl)c1)c1cc2ccccc2cc1O`, the GI50 was 2.62 µM and 2.06 µM. `CC(C)c1ccccc1S(=O)c1ccccc1C(C)(C)O` (stereo not drawn) was tested, and the TGI was greater than 100 µM. Molecule `O=C(N/N=C\c1cc(Br)ccc1O)c1ccncc1` has a GI50 of 1.42 µM and a TGI of 34.5 µM. `COc1ccccc1/C=C/c1cnccn1` showed a TGI greater than 10 µM. Work on `O=C(O)c1cccc(OCCO)c1` yielded a TGI greater than 100 µM. Molecule `COc1ccc(C2C(C#N)=C(N)OC3=C2COc2ccc(F)cc23)cc1OC` (stereo not drawn) has a GI50 of 19.4 µM and a TGI of 57.3 µM. `CCOC(=O)C1=C(C)N(N)C(=S)NC1c1ccc(C)cc1` (stereo not drawn) gave a GI50 of 61.9 µM and a TGI greater than 100 µM. `N#CC(C(=O)/C(=N/Nc1nc(=S)[nH]n1N)C(C#N)c1ccccc1)c1ccccc1` (stereo not drawn) showed a TGI greater than 100 µM. `CCCS(=O)(=O)Nc1ccc(Nc2c3ccccc3nc3ccccc23)c(OC)c1` showed a TGI of 37.1 µM. For `Cc1cc(NC(=O)c2ccc(C)c(Nc3nccc(-c4cccnc4)n3)c2)cc(-n2cnc(C)c2)c1`, the GI50 was 7.18 µM and the TGI was 23 µM. Work on `O=C(O)c1ccccc1-c1ccccc1C(=O)Nc1ccc2c(c1)Cc1cc(F)ccc1-2` yielded a TGI greater than 100 µM. With `CN(C)Cc1c[nH]c2c1C(=O)c1c(c(O)c3ccccc3c1O)C2=O` the GI50 was 4.29 µM and the TGI was 22.8 µM.

The molecules below were run on HOP-92 NSCLC (assay: DTP human tumour cell line panel, 48 h).
`CN1CCc2c(Sc3ccc(C(=O)NO)cc3)c3ccccc3n2C1` was tested, and the GI50 was 2 µM and the TGI was 6.88 µM. Molecule `COc1ccc(CNc2c3ccccc3nc3ccccc23)cc1OC` has a GI50 of 1.62 µM and a TGI of 7.83 µM. Work on `CN(C)c1ccc2nc3ccc(=O)cc-3sc2c1` yielded a GI50 of 1.46 µM and a TGI of 29.5 µM. `O=C(Nc1ccc(Cl)cc1F)c1cc(Br)ccc1O` showed a GI50 of 0.183 µM and a TGI of 0.67 µM. In the case of `COc1ccc(-n2cc(-c3ccc(Cl)c(Cl)c3)nc2SCc2cccc(C#N)c2)cc1`, the GI50 is reported as 10.1 µM and the TGI is reported as 40.3 µM. Work on `Fc1ccc(Nc2cc(-n3nnc4ccccc43)nc3ccccc23)cc1` yielded a GI50 of 14.4 µM and a TGI of 34 µM. `NC(=O)C(=CNc1nc(-c2ccc(Cl)c(Cl)c2)cs1)C(N)=O` showed a GI50 greater than 100 µM and a TGI greater than 100 µM. Work on `NC(N)=N/N=C/c1cc(Cl)cc(Cl)c1O` yielded a TGI greater than 100 µM. With `O=C(Nc1cccc(Cl)c1)c1cc2ccccc2cc1O` the GI50 was 0.41 µM and 0.306 µM and the TGI was 3.66 µM and 0.973 µM. `CC(C)c1ccccc1S(=O)c1ccccc1C(C)(C)O` (stereo not drawn) was tested, and the TGI was greater than 100 µM. `O=C(N/N=C\c1cc(Br)ccc1O)c1ccncc1` was tested, and the GI50 was 2.22 µM and the TGI was 45.4 µM. `COc1ccccc1/C=C/c1cnccn1` gave a TGI greater than 10 µM. `O=C(O)c1cccc(OCCO)c1` was tested, and the TGI was greater than 100 µM. Molecule `COc1ccc(C2C(C#N)=C(N)OC3=C2COc2ccc(F)cc23)cc1OC` (stereo not drawn) has a GI50 of 47.6 µM and a TGI greater than 100 µM. With `CCOC(=O)C1=C(C)N(N)C(=S)NC1c1ccc(C)cc1` (stereo not drawn) the GI50 was 0.932 µM and the TGI was greater than 100 µM. Molecule `N#CC(C(=O)/C(=N/Nc1nc(=S)[nH]n1N)C(C#N)c1ccccc1)c1ccccc1` (stereo not drawn) has a TGI greater than 100 µM. `CCCS(=O)(=O)Nc1ccc(Nc2c3ccccc3nc3ccccc23)c(OC)c1` gave a TGI of 17.5 µM. `Cc1cc(NC(=O)c2ccc(C)c(Nc3nccc(-c4cccnc4)n3)c2)cc(-n2cnc(C)c2)c1` was tested, and the GI50 was 0.716 µM and the TGI was 2.78 µM. Molecule `O=C(O)c1ccccc1-c1ccccc1C(=O)Nc1ccc2c(c1)Cc1cc(F)ccc1-2` has a TGI greater than 100 µM. Work on `CN(C)Cc1c[nH]c2c1C(=O)c1c(c(O)c3ccccc3c1O)C2=O` yielded a GI50 of 13.6 µM and a TGI of 31.7 µM.
